# Experimental data from patent US12054498B2, “Heteroaromatic macrocyclic ether chemotherapeutic agents” (Nuvalent, Inc., priority 2020, dated 2024).
# Columns and labels:
# [1] = molecular target: T1, ROS1-wt (Homo sapiens, UniProt P08922); experiment: Biochemical kinase assay, ROS1-wt kinase domain; details: apparent inhibitory constant, Morrison equation; ATP 2 mM in substrate solution; read-out: ROS1-wt Ki^app
# T1 construct: purchased Carna 08-163
# In short: (§1)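 Compounds, as 100-fold DMSO stocks, were dispensed first, then substrate mix was added (ATP 2 mM, AQT0101 26 μM, in 50 mM HEPES pH 7.5/10 mM MgCl2). Reactions ran at 30 °C with fluorescence logged every 2 min over 120 min. Apparent inhibition constants came from fitting rates to Morrison's tight-binding equation.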
# [2] = molecular target: T2, Ba/F3 cells CD74-ROS1 G2032R (Homo sapiens, UniProt P08922, G2032R); experiment: Ba/F3 cell proliferation assay, CD74-ROS1 G2032R; format: cell-based; details: 72 hours, CellTiter-Glo
# T2 construct: fusion of the C-terminus of ROS1 with the N-terminus of various partner proteins; host or cells: Ba/F3 (RIKEN), retroviral pMSCV-puro; the other entry of the earlier key: CD74 (P04233, HLA class II histocompatibility antigen gamma chain)
# In short: (§2)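 Viability read by CellTiter-Glo luminescence after 72 h exposure to 3-fold serial compound dilutions, four-parameter logistic fitting giving IC50.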
# [3] = molecular target: T3, Ba/F3 cells CD74-ROS1 wild-type (wt) (Homo sapiens, UniProt P08922); experiment: Ba/F3 cell proliferation assay, CD74-ROS1 wild-type; format: cell-based; details: 72 hours, CellTiter-Glo
# T3 construct: fusion of the C-terminus of ROS1 with the N-terminus of various partner proteins; host or cells: Ba/F3 (RIKEN), retroviral pMSCV-puro; the other entry of the earlier key: CD74 (P04233, HLA class II histocompatibility antigen gamma chain)
# In short: as §2
# [4] = molecular target: T4, ROS1-G2032R (Homo sapiens, UniProt P08922, G2032R); experiment: Biochemical kinase assay, ROS1-G2032R kinase domain; details: apparent inhibitory constant, Morrison equation; ATP 2 mM in substrate solution; read-out: ROS1-G2032R Ki^app
# T4 construct: purchased SignalChem R14-12BG
# In short: as §1
# [5] = molecular target: T5, Ba/F3 cells EML4-ALK wt (variant 1) (Homo sapiens, UniProt Q9UM73); experiment: Ba/F3 cell proliferation assay, EML4-ALK wt (variant 1); format: cell-based; details: 72 hours, CellTiter-Glo
# T5 construct: echinoderm microtubule-associated protein-like 4 (EML4) gene and the ALK tyrosine kinase domain; host or cells: Ba/F3 (RIKEN), retroviral pMSCV-puro; the other entry of the earlier key: EML4 (Q9HC35, Echinoderm microtubule-associated protein-like 4)
# In short: (§3)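 Luminescence from CellTiter-Glo after 72 hours of compound exposure measured viability of IL-3-independent Ba/F3 cells carrying the retrovirally introduced fusion. Cells were plated at 1,000 per well one day before 3-fold serial dilutions were added. IC50 values came from four-parameter logistic regression.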
# [6] = molecular target: T6, ALK-wt (Homo sapiens, UniProt Q9UM73); experiment: Biochemical kinase assay, ALK-wt kinase domain; details: apparent inhibitory constant, Morrison equation; ATP 2 mM in substrate solution; read-out: ALK-wt Ki^app
# T6 construct: purchased Carna 08-518
# In short: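 Apparent Ki values come from fitting initial reaction rates against inhibitor concentration to the Morrison equation. Rates were taken from the linear phase of fluorogenic substrate phosphorylation (AQT0101 for ALK and ROS1, AQT0104 for TRKA; 26 μM in substrate solution with 2 mM ATP), monitored at 485 nm over 120 min at 30° C.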
# [7] = molecular target: T7, ALK L1196M/G1202R (Homo sapiens, UniProt Q9UM73, G1202R/L1196M); experiment: Biochemical kinase assay, ALK L1196M/G1202R kinase domain; details: apparent inhibitory constant, Morrison equation; ATP 2 mM in substrate solution; read-out: ALK-L1196M-G1202R Ki^app
# T7 construct: purchased SignalChem A19-12NG
# In short: (§4)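 Kinase domains (in kinase solution: ROS1-G2032R 0.5 nM, ROS1-wt 0.6 nM, TRKA 1 nM, ALK L1196M/G1202R 3 nM) were mixed with compound and a substrate solution of 2 mM ATP plus 26 μM fluorogenic AQT0101 (ALK, ROS1) or AQT0104 (TRKA) in HEPES pH 7.5/MgCl2. Fluorescence was followed for 120 min at 30° C; Ki^app was obtained by Morrison fit of initial rates.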
# [8] = molecular target: T8, Ba/F3 cells EML4-ALK L1196M/G1202R (variant 1) (Homo sapiens, UniProt Q9UM73, G1202R/L1196M); experiment: Ba/F3 cell proliferation assay, EML4-ALK L1196M/G1202R (variant 1); format: cell-based; details: 72 hours, CellTiter-Glo
# T8 construct: echinoderm microtubule-associated protein-like 4 (EML4) gene and the ALK tyrosine kinase domain; host or cells: Ba/F3 (RIKEN), retroviral pMSCV-puro; the other entry of the earlier key: EML4 (Q9HC35, Echinoderm microtubule-associated protein-like 4)
# In short: as §3
# [9] = test system: TPM3-NTRK1-wt IC50 / primary target IC50 (e.g. CD74-ROS1-wt); experiment: TRKA selectivity in Ba/F3 cells (TRKA potency divided by primary target potency); format: cell-based; details: for TPM3-NTRK1-wt/CD74-ROS1-G2032R selectivity ratio: TRKA potency / CD74-ROS1-G2032R potency; for TPM3-NTRK1-wt/CD74-ROS1-wt selectivity ratio: TRKA potency / CD74-ROS1-wt potency; for TPM3-NTRK1-wt/EML4-ALK-L1196M-G1202R selectivity ratio: TRKA potency / EML4-ALK-L1196M-G1202R potency; for TPM3-NTRK1-wt/EML4-ALK-wt selectivity ratio: TRKA potency / EML4-ALK-wt potency
# Procedure: TRKA selectivity was calculated by dividing a compound's TRKA potency by its primary target potency (e.g. TPM3-NTRK1-wt IC50/CD74-ROS1-wt IC50). Compound selectivity can be interpreted by binning ratio values: bin A for very high selectivity, ratio >30-fold; bin B for high selectivity, ratio >10-fold; bin C for moderate selectivity, ratio ≥1; and bin D for low selectivity, ratio <1. […] (nd=not determined).
# [10] = molecular target: T9, TRKA-wt (Homo sapiens, UniProt P04629); experiment: Biochemical kinase assay, TRKA-wt kinase domain; details: apparent inhibitory constant, Morrison equation; ATP 2 mM in substrate solution; read-out: TRKA-wt Ki^app
# T9 construct: or TRKA-wt (1 nM, BPS Bio, 40280) kinase domains in buffer; purchased BPS Bio 40280
# In short: as §4
# [11] = molecular target: T10, Ba/F3 cells TPM3-TRKA (Homo sapiens, UniProt P04629); experiment: Ba/F3 cell proliferation assay, TPM3-TRKA; format: cell-based; details: 72 hours, CellTiter-Glo, read-out: TPM3-NTRK1-wt IC50
# T10 construct: host or cells: Ba/F3 (RIKEN), retroviral pMSCV-puro; the other entry of the earlier key: TPM3 (P06753, Tropomyosin alpha-3 chain)
# In short: as §3
# T1 sequence (P08922 1945-2222 limits assumed): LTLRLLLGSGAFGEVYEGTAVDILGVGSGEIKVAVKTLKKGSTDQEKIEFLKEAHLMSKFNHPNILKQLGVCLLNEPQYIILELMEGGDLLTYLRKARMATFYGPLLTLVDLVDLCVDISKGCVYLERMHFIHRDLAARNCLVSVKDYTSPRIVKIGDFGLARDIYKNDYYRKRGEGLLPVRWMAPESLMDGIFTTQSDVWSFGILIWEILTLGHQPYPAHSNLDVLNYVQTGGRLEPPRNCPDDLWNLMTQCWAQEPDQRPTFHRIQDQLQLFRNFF
# T5 sequence (Q9UM73 with tags, fused parts or gaps): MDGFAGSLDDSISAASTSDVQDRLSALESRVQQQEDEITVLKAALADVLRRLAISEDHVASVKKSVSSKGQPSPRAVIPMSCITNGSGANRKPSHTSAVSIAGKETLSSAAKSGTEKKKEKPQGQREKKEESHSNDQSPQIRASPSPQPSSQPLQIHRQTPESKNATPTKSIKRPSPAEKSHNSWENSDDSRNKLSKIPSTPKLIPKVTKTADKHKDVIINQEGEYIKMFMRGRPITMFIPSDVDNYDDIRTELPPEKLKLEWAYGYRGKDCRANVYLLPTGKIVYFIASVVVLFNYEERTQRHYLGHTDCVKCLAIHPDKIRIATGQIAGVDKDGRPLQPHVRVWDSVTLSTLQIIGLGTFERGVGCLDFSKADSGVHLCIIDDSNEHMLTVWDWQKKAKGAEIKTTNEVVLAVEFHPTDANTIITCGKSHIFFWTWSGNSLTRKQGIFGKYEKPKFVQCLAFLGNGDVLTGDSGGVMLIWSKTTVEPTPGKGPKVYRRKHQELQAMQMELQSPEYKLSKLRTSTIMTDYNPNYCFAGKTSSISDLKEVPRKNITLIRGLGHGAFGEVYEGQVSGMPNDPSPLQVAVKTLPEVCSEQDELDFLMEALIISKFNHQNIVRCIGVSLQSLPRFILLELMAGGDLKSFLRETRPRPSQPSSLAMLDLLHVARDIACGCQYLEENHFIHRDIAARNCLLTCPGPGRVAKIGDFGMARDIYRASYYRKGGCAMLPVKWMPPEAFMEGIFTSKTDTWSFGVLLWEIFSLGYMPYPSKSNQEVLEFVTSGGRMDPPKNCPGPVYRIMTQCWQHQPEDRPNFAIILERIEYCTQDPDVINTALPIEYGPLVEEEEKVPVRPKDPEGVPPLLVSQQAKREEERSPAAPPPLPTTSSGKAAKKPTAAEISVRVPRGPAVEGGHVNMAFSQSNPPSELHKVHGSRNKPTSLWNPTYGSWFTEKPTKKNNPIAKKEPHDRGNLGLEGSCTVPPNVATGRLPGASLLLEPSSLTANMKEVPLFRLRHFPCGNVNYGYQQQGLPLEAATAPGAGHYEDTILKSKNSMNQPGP
# T2 sequence (P08922 1883-2347 G2032R limits assumed): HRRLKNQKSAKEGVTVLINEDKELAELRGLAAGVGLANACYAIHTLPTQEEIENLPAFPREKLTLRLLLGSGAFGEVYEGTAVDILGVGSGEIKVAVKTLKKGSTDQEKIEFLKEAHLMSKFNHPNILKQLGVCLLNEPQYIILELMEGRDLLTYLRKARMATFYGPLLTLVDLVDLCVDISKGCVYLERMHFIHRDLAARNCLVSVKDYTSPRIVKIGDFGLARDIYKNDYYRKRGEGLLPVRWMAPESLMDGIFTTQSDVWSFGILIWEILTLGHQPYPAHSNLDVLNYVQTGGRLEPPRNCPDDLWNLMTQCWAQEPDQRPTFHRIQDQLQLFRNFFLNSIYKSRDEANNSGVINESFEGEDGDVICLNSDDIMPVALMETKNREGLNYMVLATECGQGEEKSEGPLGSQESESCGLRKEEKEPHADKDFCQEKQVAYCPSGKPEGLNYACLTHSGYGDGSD
# T3 sequence (P08922 1883-2347 limits assumed): as the sequence (P08922 1883-2347 G2032R limits assumed) above, with R150G counted along it
# T6 sequence (Q9UM73 1116-1392 limits assumed): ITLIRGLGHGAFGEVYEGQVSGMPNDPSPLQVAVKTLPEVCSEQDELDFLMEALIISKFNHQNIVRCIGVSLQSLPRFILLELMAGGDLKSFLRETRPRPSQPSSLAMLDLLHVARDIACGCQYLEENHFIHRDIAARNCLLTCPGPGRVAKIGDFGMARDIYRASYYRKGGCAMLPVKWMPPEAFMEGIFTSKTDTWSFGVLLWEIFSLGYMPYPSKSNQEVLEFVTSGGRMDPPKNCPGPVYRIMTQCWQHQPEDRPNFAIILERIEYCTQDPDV
# T10 sequence (P04629 510-796 limits assumed): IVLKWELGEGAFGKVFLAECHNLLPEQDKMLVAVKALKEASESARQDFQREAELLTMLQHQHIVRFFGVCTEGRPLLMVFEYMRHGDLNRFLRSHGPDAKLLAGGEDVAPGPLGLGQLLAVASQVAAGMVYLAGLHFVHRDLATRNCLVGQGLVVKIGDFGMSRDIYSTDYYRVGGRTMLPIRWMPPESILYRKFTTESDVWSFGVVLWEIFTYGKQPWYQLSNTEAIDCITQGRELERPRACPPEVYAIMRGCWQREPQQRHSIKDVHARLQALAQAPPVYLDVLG
# T4 sequence (P08922 1945-2222 G2032R limits assumed): as the sequence (P08922 1945-2222 limits assumed) above, with G88R counted along it
# T9 sequence (P04629 510-781 limits assumed): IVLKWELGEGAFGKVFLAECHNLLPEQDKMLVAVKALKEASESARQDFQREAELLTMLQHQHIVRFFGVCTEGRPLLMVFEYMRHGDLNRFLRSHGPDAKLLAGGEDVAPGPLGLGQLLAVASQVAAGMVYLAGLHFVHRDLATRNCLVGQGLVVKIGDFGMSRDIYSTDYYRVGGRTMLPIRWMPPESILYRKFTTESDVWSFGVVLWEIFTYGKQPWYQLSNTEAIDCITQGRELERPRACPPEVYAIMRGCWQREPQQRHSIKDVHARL
# T7 sequence (Q9UM73 1116-1392 L1196M/G1202R limits assumed): as the sequence (Q9UM73 1116-1392 limits assumed) above, with L81M, G87R counted along it
# T8 sequence (Q9UM73 with tags, fused parts or gaps L1196M/G1202R): as the sequence (Q9UM73 with tags, fused parts or gaps) above, with L635M, G641R counted along it
Ki [1] [nM],IC50 [2] [nM],IC50 [3] [nM],Ki [4] [nM],IC50 [5] [nM],Ki [6] [nM],Ki [7] [nM],IC50 [8] [nM],Ki [10] [nM],IC50 [11] [nM],Compound,TPM3-NTRK1-wt/CD74-ROS1-G2032R selectivity ratio [9],TPM3-NTRK1-wt/CD74-ROS1-wt selectivity ratio [9],TPM3-NTRK1-wt/EML4-ALK-L1196M-G1202R selectivity ratio [9],TPM3-NTRK1-wt/EML4-ALK-wt selectivity ratio [9]
< 50,0.1 to 50,0.1 to 50,< 50,0.1 to 50,< 50,< 50,50 to 500,> 500,> 500,"Cc1nn(CC2CC2)c2c1Cn1ncnc1-c1ccc(F)cc1[C@@H](C)Oc1cc-2cnc1N [Example 64, (19R)-3-(cyclopropylmethyl)-16-fluoro-5,19-dimethyl-20-oxa-3,4,8,9,11,23-hexaazapentacyclo[19.3.1.0^2,^6.0^8,^12.0^13,^18]pentacosa-1(24),2(6),4,9,11,13,15,17,21(25),22-decaen-22-amine]","A (bin A for very high selectivity, ratio >30-fold)","A (bin A for very high selectivity, ratio >30-fold)","A (bin A for very high selectivity, ratio >30-fold)","A (bin A for very high selectivity, ratio >30-fold)"
< 50,0.1 to 50,0.1 to 50,< 50,0.1 to 50,< 50,< 50,50 to 500,> 500,> 500,"C[C@H]1Oc2cc(cnc2N)-c2c(cnn2CC2CC2)Cn2ncnc2-c2ccc(F)cc21 [Example 70, (19R)-3-(cyclopropylmethyl)-16-fluoro-19-methyl-20-oxa-3,4,8,9,11,23-hexaazapentacyclo[19.3.1.0^2,^6.0^8,^12.0^13,^18]pentacosa-1(24),2(6),4,9,11,13,15,17,21(25),22-decaen-22-amine]","A (bin A for very high selectivity, ratio >30-fold)","A (bin A for very high selectivity, ratio >30-fold)","A (bin A for very high selectivity, ratio >30-fold)","A (bin A for very high selectivity, ratio >30-fold)"

# Further lines, the molecule ahead of its results:
Compound,Ki [1] [nM],IC50 [2] [nM],IC50 [3] [nM],Ki [4] [nM],IC50 [5] [nM],Ki [6] [nM],Ki [7] [nM],IC50 [8] [nM],Ki [10] [nM],IC50 [11] [nM],TPM3-NTRK1-wt/CD74-ROS1-G2032R selectivity ratio [9],TPM3-NTRK1-wt/CD74-ROS1-wt selectivity ratio [9],TPM3-NTRK1-wt/EML4-ALK-L1196M-G1202R selectivity ratio [9],TPM3-NTRK1-wt/EML4-ALK-wt selectivity ratio [9]
"CCn1ncc2c1-c1cnc(N)c(c1)O[C@H](C)c1cc(F)ccc1-c1nsnc1C2 [Example 62, (19R)-3-ethyl-16-fluoro-19-methyl-20-oxa-10-thia-3,4,9,11,23-pentaazapentacyclo[19.3.1.0^2,^6.0^8,^12.0^13,^18]pentacosa-1(24),2(6),4,8,11,13,15,17,21(25),22-decaen-22-amine]",< 50,0.1 to 50,0.1 to 50,< 50,0.1 to 50,< 50,< 50,0.1 to 50,50 to 500,50 to 500,"A (bin A for very high selectivity, ratio >30-fold)","A (bin A for very high selectivity, ratio >30-fold)","C (bin C for moderate selectivity, ratio ≥1)","A (bin A for very high selectivity, ratio >30-fold)"
"C[C@H]1Oc2cc(cnc2N)-c2c(CC3CC3)noc2Cc2nn(C)nc2-c2ccc(F)cc21 [Example 63, (19R)-3-(cyclopropylmethyl)-16-fluoro-10,19-dimethyl-5,20-dioxa-4,9,1 0,11,23-pentaazapentacyclo [19.3.1.0^2,^6.0^8,^12.0^13,^18]pentacosa-1(24),2(6),3,8,11,13,15,17,21(25),22-decaen-22-amine]",< 50,0.1 to 50,0.1 to 50,< 50,0.1 to 50,< 50,< 50,0.1 to 50,> 500,50 to 500,"A (bin A for very high selectivity, ratio >30-fold)","A (bin A for very high selectivity, ratio >30-fold)","B (bin B for high selectivity, ratio >10-fold)","A (bin A for very high selectivity, ratio >30-fold)"
Cc1nn(CC2CC2)c2c1Cc1nn(C)nc1-c1ccc(F)cc1[C@@H](C)Oc1cc-2cnc1N [Example 65],< 50,0.1 to 50,0.1 to 50,< 50,0.1 to 50,< 50,< 50,0.1 to 50,> 500,> 500,"A (bin A for very high selectivity, ratio >30-fold)","A (bin A for very high selectivity, ratio >30-fold)","A (bin A for very high selectivity, ratio >30-fold)","A (bin A for very high selectivity, ratio >30-fold)"
"CCn1ncc2c1-c1cnc(N)c(c1)O[C@H](C)c1cc(F)ccc1-c1oc(C)nc1C2 [Example 66, (19R)-3-ethyl-16-fluoro-10,19-dimethyl-11,20-dioxa-3,4,9,23-tetraazapentacyclo[19.3.1,0^2,^6.0^8,^12.0^13,^18]pentacosa-1(24),2(6),4,8(12),9,13,15,17,21(25),22-decaen-22-amine]",< 50,0.1 to 50,0.1 to 50,< 50,0.1 to 50,< 50,< 50,0.1 to 50,50 to 500,50 to 500,"A (bin A for very high selectivity, ratio >30-fold)","A (bin A for very high selectivity, ratio >30-fold)","C (bin C for moderate selectivity, ratio ≥1)","B (bin B for high selectivity, ratio >10-fold)"
"C[C@H]1Oc2cc(cnc2N)-c2c(cnn2CC2CC2)Cc2nn(C)nc2-c2ccc(F)cc21 [Example 69, (19R)-3-(cyclopropylmethyl)-16-fluoro-10,19-dimethyl-20-oxa-3,4,9,10,11,23-hexaazapentacyclo[19.3.1.0^2,^6.0^8,^12.0^13,^18]pentacosa-1(24),2(6),4,8,11,13,15,17,21(25),22-decaen-22-amine]",< 50,0.1 to 50,0.1 to 50,< 50,0.1 to 50,< 50,< 50,0.1 to 50,> 500,> 500,"A (bin A for very high selectivity, ratio >30-fold)","A (bin A for very high selectivity, ratio >30-fold)","A (bin A for very high selectivity, ratio >30-fold)","A (bin A for very high selectivity, ratio >30-fold)"
